The text below walks through data of US9943498B2, “Fe(III) complex compounds for the treatment and prophylaxis of iron deficiency symptoms and iron deficiency anemias” (Vifor (International) AG, priority 2010, dated 2018).

One test has as its system Male NMRI (SPF) mice fed a low-iron diet. Kind of test: Fe utilization in iron-deficient mouse model. The test is classed as in vivo. Particulars: male NMRI mice on low-iron diet (approx. 5 ppm iron); 2 mg iron/kg body weight/day by stomach tube, days 1-5 and 8-12; utilization on day 15 calculated from hemoglobin and body weight increase versus control group. On the procedure:
The excellent Fe utilizations that can be accomplished through the Fe complexes according to the invention were measured by means of the following mouse model.
Male NMRI (SPF) mice (approximately 3 weeks old) were fed a low-iron diet (approx. 5 ppm iron) for approximately 3 weeks. The iron complexes were then administered to them by means of a stomach tube (2 mg iron/kg body weight/day) for 2 times 5 days, with an interruption of 2 days (days 1-5 and 8-12). Utilization on day 15 was calculated from the hemoglobin increase and the body weight increase in accordance with the formula
[formula] • 0.07=Factor for 70 ml blood per kg body weight (BW) • 0.0034=Factor for 0.0034 g Fe/g Hb • Hb1=Hemoglobin level (g/I) on day 1 • Hb2(3)=Hemoglobin level (g/I) on day 8 (or 15) • BW4=body weight (g) on day 1 • BW9(14)=body weight (g) on day 8 (or 15) • Hb1 Control=average hemoglobin level (g/I) on day 1 in the control group, • Hb2(3) Control=average hemoglobin level (g/I) on day 8 (or 15) in the control group, • BW4 Control=average body weight (g) on day 1 in the control group, • BW9(14) Control=average body weight (g) on day 8 (or 15) in the control group, • Fe Dos.=entire administered iron (mg Fe) over 5 or 10 days, • Fe ut.=(Hb2(3)*BW9(14)-Hb1*BW4)*0.07*0.0034 (mg Fe) Δ Utilization=Fe tot. utilized (examined group)—Fe ut. Control group, utilized from food, (mg Fe)
“Tris(3-oxo-2-(piperidin-1-ylcarbonyl)butanenitrile)-iron(III) Complex [Example 5]”: the “Utilization n 15 d (abs. %)” value is given as 61 abs. %.

“Tris(3-oxoheptaneamide)-iron(III) Complex [Example 10]”: the “Utilization n 15 d (abs. %)” value is on record as 45 abs. %.

Consider “Tris(3-oxopentaneamide)-iron(III) Complex [Example 18]”, for which the “Utilization n 15 d (abs. %)” value is reported as 81 abs. %.

In the case of “Tris(N,N-dibutyl-3-oxobutaneamide)-iron(III) Complex [Example 8]”, the “Utilization n 15 d (abs. %)” value is 69 abs. %.

As to “Tris(N,N-dimethyl-3-oxoheptaneamide)-iron(III) Complex [Example 17]”, the “Utilization n 15 d (abs. %)” value was 48 abs. %.

On to “Tris(N,N-dimethyl-3-oxopentaneamide)-iron(III) Complex [Example 19]”, for which the “Utilization n 15 d (abs. %)” value is 73 abs. %.

“Tris(N-butyl-3-oxobutaneamide)-iron(III) Complex [Example 7]”: the “Utilization n 15 d (abs. %)” value is listed as 41 abs. %.

Take “Tris(N-methyl-3-oxoheptaneamide)-iron(III) Complex [Example 11]”: the “Utilization n 15 d (abs. %)” value is 75 abs. %.

In the case of “Tris-(1-(2,6-dimethylmorpholin-4-yl]butane-1,3-dione)-iron(III)-complex [Example 59]”, the “Utilization n 15 d (abs. %)” value is 80 abs. %.

Turning to “Tris-(1-(3-hydroxypiperidin-1-yl)butane-1,3-dione)-iron(III)-complex [Example 47]”, the “Utilization n 15 d (abs. %)” value is given as 61 abs. %.

Consider “Tris-(1-(4-Hydroxypiperidin-1-yl)-4-methylpentane-1,3-dione)-iron(III)-complex [Example 64]”, for which the “Utilization n 15 d (abs. %)” value was 79 abs. %.

As for “Tris-(1-(4-hydroxypiperidin-1-yl)-butane-1,3-dione)-iron(II) complex [Example 14]”, the “Utilization n 15 d (abs. %)” value was 68 abs. %.

Regarding “Tris-(1-(4-hydroxypiperidin-1-yl)pentane-1,3-dione)-iron(III)-complex [Example 61]”, the “Utilization n 15 d (abs. %)” value is on record as 73 abs. %.

For the substance “Tris-(1-(morpholin-4-yl)butane-1,3-dione)-iron(III)-complex [Example 33]”, the “Utilization n 15 d (abs. %)” value was 69 abs. %.

As to “Tris-(1-(morpholin-4-yl)pentane-1,3-dione)-iron(III)-complex [Example 62]”, the “Utilization n 15 d (abs. %)” value is 68 abs. %.

For “Tris-(1-(piperidin-1-yl)-butane-1,3-dione)-iron(III) Complex [Example 9]”, the “Utilization n 15 d (abs. %)” value is reported as 54 abs. %.

Consider “Tris-(1-[4-(2-hydroxyethyl)piperazin-1-yl]butane-1,3-dione)-iron(III)-complex [Example 52]”, for which the “Utilization n 15 d (abs. %)” value is listed as 84 abs. %.

As for “Tris-(1-[4-(hydroxymethyl)piperidin-1-yl]butane-1,3-dione)-iron(III)-complex [Example 48]”, the “Utilization n 15 d (abs. %)” value was 53 abs. %.

In the case of “Tris-(1-[(3S)-3-hydroxypyrrolidin-1-yl]butane-1,3-dione)-iron(III)-complex [Example 51]”, the “Utilization n 15 d (abs. %)” value is on record as 78 abs. %.

As for “Tris-(2-Fluoro-3-oxo-N-propylbutanamide)-iron(III)-complex [Example 23]”, the “Utilization n 15 d (abs. %)” value was 88 abs. %.

Regarding “Tris-(2-Fluoro-N,N-dimethyl-3-oxobutanamide)-iron(II)-complex [Example 22]”, the “Utilization n 15 d (abs. %)” value is recorded as 78 abs. %.

“Tris-(3-acetyl-1-methylpiperidin-2-one)-iron(III)-complex [Example 31]”: the “Utilization n 15 d (abs. %)” value is 71 abs. %.

For “Tris-(3-acetyl-1-methylpyrrolidin-2-one)-iron(III)-complex [Example 28]”, the “Utilization n 15 d (abs. %)” value is 73 abs. %.

Consider “Tris-(3-oxo-N,N-dipropylbutaneamide)-iron(III) Complex [Example 15]”, for which the “Utilization n 15 d (abs. %)” value was 68 abs. %.

In the case of “Tris-(3-oxo-N-(propan-2-yl)butanamide)-iron(III)-complex [Example 36]”, the “Utilization n 15 d (abs. %)” value was 79 abs. %.

“Tris-(3-oxobutaneamide)-iron(III) Complex [Example 1]”: the “Utilization n 15 d (abs. %)” value was 61 abs. %.

As to “Tris-(4-Methoxy-1-(morpholin-4-yl)butane-1,3-dione)-iron(III)-complex [Example 27]”, the “Utilization n 15 d (abs. %)” value is given as 88 abs. %.

Regarding “Tris-(4-Methoxy-N,N-dimethyl-3-oxobutanamide)-iron(III)-complex [Example 24]”, the “Utilization n 15 d (abs. %)” value was 70 abs. %.

Consider “Tris-(4-Methyl-1-(morpholin-4-yl)-pentane-1,3-dione)-iron(III)-complex [Example 26]”, for which the “Utilization n 15 d (abs. %)” value was 64 abs. %.

On to “Tris-(Ethyl (1-methyl-2-oxopyrrolidin-3-yl)(oxo)acetate)-iron(III)-complex [Example 29]”, for which the “Utilization n 15 d (abs. %)” value was 79 abs. %.

Turning to “Tris-(N,N,4-Trimethyl-3-oxopentanamide)-iron(III)-complex [Example 25]”, the “Utilization n 15 d (abs. %)” value is on record as 60 abs. %.

“Tris-(N,N-bis-(2-hydroxyethyl)-3-oxobutaneamide)-iron(III) Complex [Example 12]”: the “Utilization n 15 d (abs. %)” value was 35 abs. %.

Regarding “Tris-(N,N-diethyl-3-oxobutaneamide)-iron(III) Complex [Example 2]”, the “Utilization n 15 d (abs. %)” value is 41 abs. %.

As for “Tris-(N,N-dimethyl-3-oxobutaneamide)-iron(III) Complex [Example 3]”, the “Utilization n 15 d (abs. %)” value is given as 95 abs. %.

For “Tris-(N-(1-hydroxy-2-methylpropan-2-yl)-3-oxobutanamide)-iron(III)-complex [Example 41]”, the “Utilization n 15 d (abs. %)” value was 68 abs. %.

Regarding “Tris-(N-(2,3-dihydroxypropyl)-3-oxobutanamide)-iron(III)-complex [Example 46]”, the “Utilization n 15 d (abs. %)” value is given as 78 abs. %.

For the substance “Tris-(N-(2-Hydroxyethyl)-N,4-dimethyl-3-oxopentanamide)-iron(11)-complex [Example 65]”, the “Utilization n 15 d (abs. %)” value is recorded as 73 abs. %.

In the case of “Tris-(N-(2-hydroxyethyl)-N-methyl-3-oxobutanamide)-iron(III)-complex [Example 42]”, the “Utilization n 15 d (abs. %)” value is on record as 30 abs. %.

With “Tris-(N-(2-hydroxypropyl)-3-oxobutanamide)-iron(III)-complex [Example 43]”, the “Utilization n 15 d (abs. %)” value is reported as 75 abs. %.

“Tris-(N-(2-methoxyethyl)-3-oxobutanamide)-iron(III)-complex [Example 34]”: the “Utilization n 15 d (abs. %)” value is listed as 32 abs. %.

“Tris-(N-(3-hydroxypropyl)-3-oxobutanamide)-iron(III)-complex [Example 38]”: the “Utilization n 15 d (abs. %)” value is given as 77 abs. %.

Still in this test, the particulars now being: mouse, in vivo.
Turning to “Tris-(2-chloro-N-methyl-3-oxobutaneamide)-iron(III) Complex [Example 6]”, the “Utilization n 15 d (abs. %)” value was 57 abs. %.

Consider “Tris-(N-(1-hydroxypropan-2-yl)-3-oxobutanamide)-iron(III)-complex [Example 44]”, for which the “Utilization n 15 d (abs. %)” value is reported as 73 abs. %.

Take “Tris-(N-(2-hydroxyethyl)-3-oxobutanamide)-iron(III)-complex [Example 37]”: the “Utilization n 15 d (abs. %)” value is reported as 34 abs. %.
